The text below walks through data of US20130102009A1, “SIRTUIN ACTIVATORS AND ACTIVATION ASSAYS” (priority 2010, published 2013).

Test [1] has as its target T1, SIRT1 (Homo sapiens, UniProt Q96EB6).
T1 sequence (Q96EB6 1-747): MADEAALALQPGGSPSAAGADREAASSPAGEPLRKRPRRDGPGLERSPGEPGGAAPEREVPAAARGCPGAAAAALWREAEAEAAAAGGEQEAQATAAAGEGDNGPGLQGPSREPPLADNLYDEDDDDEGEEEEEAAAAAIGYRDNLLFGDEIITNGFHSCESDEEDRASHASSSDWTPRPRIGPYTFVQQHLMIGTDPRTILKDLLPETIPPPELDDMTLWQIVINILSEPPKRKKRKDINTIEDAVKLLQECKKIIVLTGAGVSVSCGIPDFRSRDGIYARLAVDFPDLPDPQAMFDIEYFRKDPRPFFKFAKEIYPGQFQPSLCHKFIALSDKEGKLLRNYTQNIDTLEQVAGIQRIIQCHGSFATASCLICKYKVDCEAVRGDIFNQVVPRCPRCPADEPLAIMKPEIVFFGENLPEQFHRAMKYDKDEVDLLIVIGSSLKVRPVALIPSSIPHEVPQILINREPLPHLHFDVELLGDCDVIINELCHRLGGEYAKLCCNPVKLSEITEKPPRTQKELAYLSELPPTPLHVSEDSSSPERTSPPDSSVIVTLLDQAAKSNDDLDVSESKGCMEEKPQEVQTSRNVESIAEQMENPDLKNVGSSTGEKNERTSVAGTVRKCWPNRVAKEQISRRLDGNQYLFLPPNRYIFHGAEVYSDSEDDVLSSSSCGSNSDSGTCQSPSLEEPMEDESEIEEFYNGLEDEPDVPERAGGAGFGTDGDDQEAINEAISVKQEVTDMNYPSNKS
Briefly: Continuous PNC1-GDH-coupled assay of SIRT1-catalyzed deacetylation of Ac-Arg-His-Lys-Lys^Ac-X with STACs. The note with it: [SRT]o = 5 μM, [peptide]o ≦ Km, [NAD+] = 70 μM; for Relative Velocity, X=AMC: Ac-Arg-His-Lys-Lys^Ac-AMC; for Relative Velocity, X=Ala-NH2: Ac-Arg-His-Lys-Lys^Ac-Ala-NH2; for Relative Velocity, X=NH2: Ac-Arg-His-Lys-Lys^Ac-NH2; for Relative Velocity, X=Phe-NH2: Ac-Arg-His-Lys-Lys^Ac-Phe-NH2. In kind it is biochemical. On the procedure: Bovine glutamate dehydrogenase (GDH), α-ketoglutarate, NADH and NAD^+ were from Sigma Chemical Company. […] The nicotinamidase PNC1 was prepared as described by Denu and colleagues (Smith et al. (2009) Anal Biochem 394, 101-109). To determine the interaction of STACs with SIRT1 two kinetic methods were employed. […] (2007) Nature 450, 712-716). The other, used with peptides of general structure […], used a continuous, enzyme-coupled method reported previously (Smith et al. (2009) Anal Biochem 394, 101-109), in which the SRT1 product nicotinamide is first converted into nicotinic acid and ammonia by the action of PNC1, and the ammonia then used by GDH to convert α-ketoglutarate into glutamate. This reaction occurs with oxidation of NADH to NAD^+ which is accompanied by a change in absorbance at 340 nm (Δε340=-6,200 M^-1 cm^-1). The kinetic experiments used to characterize activators were run on a Perkin Elmer Lambda 25 spectrophotometer equipped with a water-jacketed, eight-cell changer maintained at 25° C. In a typical kinetic experiment, all components of the reaction solution except SIRT1 were added to a 1 mL cuvette and allowed to reach thermal equilibrium. Final concentrations of the coupling system components were: 1 μM PNC1, 0.23 mM NADH, 3.4 mM α-ketoglutarate, and 20 U/mL bovine GDH. This solution also contained peptide substrate, NAD^.0., and activator, at concentrations indicated in the text. The final DMSO concentration was kept constant at 1%, and the buffer used in these experiments was 50 mM HEPES, 150 mM NaCl, pH 7.5. While the system was reaching thermal equilibrium, the absorbance was monitored to provide an accurate estimate of the background rate, which was subtracted from the reaction rate after the addition of SIRT1. Activator titrations were plotted as relative velocity (i.e., the ratio of vx, velocity in the presence of activator X, to vo, velocity in the absence of activator) vs. [X]o, initial concentration of activator, and fit by nonlinear least-squares to the mechanism-independent expression for enzyme activation of […] the maximum relative velocity (i.e., vx/vo at infinite [X]o) and EC50 is the activator concentration at which vx/vo=(RVmax-1)/2. EC50 is a function of the kinetic mechanisms of both catalysis and activation, and the concentrations of substrates.

For test [2], the target named is Ac-Arg-His-Lys-Lys^Ac-AMC. Briefly: ITC binding of STACs to Ac-Arg-His-Lys-Lys^Ac-X, X=AMC. The note with it: 10% DMSO for SRT1720, SRT2183 and 10, no cosolvent for SRT1460. On the procedure: (§1) ITC experiments were performed using either a VP-ITC system or iTC200 system (MicroCal) at 26° C. in a buffer composed of 137 mM NaCl, 2.7 mM KCl, 1 mM MgCl2, 2 mM TCEP, 5% (v/v) glycerol and 50 mM HEPES-NaOH, pH 7.3. SIRT1(183-664) was purified and dialyzed against the buffer, centrifuged, and degassed before the experiment. The peptide and compounds were dissolved in the final dialysis buffer and their pH values were adjusted to match that of the protein solution. […] To characterize this interaction using the iTC200 system, 1 mM TAMRA-peptide was injected in 20 aliquots of 2 μL, (except the first injection, which was 0.5 μL) into a 0.202 mL sample cell containing 100 μM STAC. For STACs with poor solubility, the concentrations were adjusted accordingly. […] In all cases, data was corrected for the heat of dilution and fitted using a nonlinear least-squares routine using a single-site binding model with Origin for ITC v7.0383 (Microcal) with the stoichiometry (n), the enthalpy of the reaction (ΔH) and the association constant (Ka) calculated. Table 2 summarizes Kd values for the binding of STACs to […]. Note that except for SRT1460, the solubility of the compounds required that these ITC experiments be done in solutions containing 10% DMSO.

In test [3] the target is Ac-Arg-His-Lys-Lys^Ac-NH2. The test can be described thus: ITC binding of STACs to Ac-Arg-His-Lys-Lys^Ac-X, X=NH2. The note with it: 10% DMSO for SRT1720, SRT2183 and 10, no cosolvent for SRT1460. On the procedure: as §1
Test [4] has as its target Ac-Arg-His-Lys-Lys^Ac-Phe-NH2. The test can be described thus: ITC binding of STACs to Ac-Arg-His-Lys-Lys^Ac-X, X=PheNH2. The note with it: 10% DMSO for SRT1720, SRT2183 and 10, no cosolvent for SRT1460. As for the experimental part: as §1
Test [5] addresses Ac-Arg-His-Lys-Lys^Ac-Trp-NH2. Briefly: ITC binding of STACs to Ac-Arg-His-Lys-Lys^Ac-X, X=TrpNH2. The note with it: 10% DMSO for SRT1720, SRT2183 and 10, no cosolvent for SRT1460. As for the experimental part: as §1
The target of test [6] is T1, SIRT1. The test can be described thus: Mass spectrometry based SIRT1 activation assay (TAMRA/5TMR-labeled 20mer peptide). In kind it is biochemical. The method in brief:
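N-terminal His-tagged human SIRT1 from E. coli BL21(DE3), 10 nM, incubated 25 min at 25° C with 0.5 μM biotin/5TMR-labeled acetylated p53-derived 20mer peptide and 120 μM βNAD+ in Tris-acetate pH 8 buffer with DTT and BSA. Formic acid stop; MS quantifies acetylated vs deacetylated peptide. EC1.5 = concentration giving 150% activation.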

For test [7], the target named is T1, SIRT1. The test can be described thus: Mass spectroscopic kinetic assay of SIRT1-catalyzed deacetylation of 20mer peptides. In kind it is biochemical. The following applies: substrate TAMRA-peptide. As for the experimental part:
Bovine glutamate dehydrogenase (GDH), α-ketoglutarate, NADH and NAD^+ were from Sigma Chemical Company. […] The nicotinamidase PNC1 was prepared as described by Denu and colleagues (Smith et al. (2009) Anal Biochem 394, 101-109). Our collection of approximately 5,000 SIRT1 activators was screened using the BioTrove mass spectrometry system, as previously described (Milne et al. (2007) Nature 450, 712-716). […] Compounds were present at 10 μM, and the assays were conducted in a pH 7.4 buffer containing 150 mM Tris, 5 mM DTT, 1% DMSO, and 0.025% BSA. To determine the interaction of STACs with SIRT1 two kinetic methods were employed. […] (2007) Nature 450, 712-716). The other, used with peptides of general structure […], used a continuous, enzyme-coupled method reported previously (Smith et al. (2009) Anal Biochem 394, 101-109), in which the SRT1 product nicotinamide is first converted into nicotinic acid and ammonia by the action of PNC1, and the ammonia then used by GDH to convert α-ketoglutarate into glutamate. This reaction occurs with oxidation of NADH to NAD^+ which is accompanied by a change in absorbance at 340 nm (Δε340=-6,200 M^-1 cm^-1). Activator titrations were plotted as relative velocity (i.e., the ratio of vx, velocity in the presence of activator X, to vo, velocity in the absence of activator) vs. [X]o, initial concentration of activator, and fit by nonlinear least-squares to the mechanism-independent expression for enzyme activation of […] the maximum relative velocity (i.e., vx/vo at infinite [X]o) and EC50 is the activator concentration at which vx/vo=(RVmax-1)/2. EC50 is a function of the kinetic mechanisms of both catalysis and activation, and the concentrations of substrates.

For another test, the target named is TAMRA-peptide. Briefly: ITC binding of STACs to TAMRA-peptide. The following applies: 26° C., pH 7.3, read-out: Kd for the binding of activator to TAMRA-peptide. As for the experimental part: ITC experiments were performed using either a VP-ITC system or iTC200 system (MicroCal) at 26° C. in a buffer composed of 137 mM NaCl, 2.7 mM KCl, 1 mM MgCl2, 2 mM TCEP, 5% (v/v) glycerol and 50 mM HEPES-NaOH, pH 7.3. SIRT1(183-664) was purified and dialyzed against the buffer, centrifuged, and degassed before the experiment. The peptide and compounds were dissolved in the final dialysis buffer and their pH values were adjusted to match that of the protein solution. […] To characterize this interaction using the iTC200 system, 1 mM TAMRA-peptide was injected in 20 aliquots of 2 μL, (except the first injection, which was 0.5 μL) into a 0.202 mL sample cell containing 100 μM STAC. For STACs with poor solubility, the concentrations were adjusted accordingly. […] In all cases, data was corrected for the heat of dilution and fitted using a nonlinear least-squares routine using a single-site binding model with Origin for ITC v7.0383 (Microcal) with the stoichiometry (n), the enthalpy of the reaction (ΔH) and the association constant (Ka) calculated.

For orientation: Kd means the concentration at which binding is half-saturated. For `O=C(Nc1ccccc1-c1cn2c(CN3CC[C@@H](O)C3)csc2n1)c1ccc2ccccc2c1` [SRT2183], on SIRT1 [1], the “Relative Velocity, X=AMC” value was 1.1; the “Relative Velocity, X=Ala-NH2” value is on record as 0.8; the “Relative Velocity, X=NH2” value came to 1.2; the “Relative Velocity, X=Phe-NH2” value turned out to be 1.0. The “Relative Velocity, X=Trp-NH2” value on SIRT1 [1] (Ac-Arg-His-Lys-Lys^Ac-Trp-NH2) is recorded as 1.0. In test [2], the equilibrium dissociation constant (Kd) was over 50 µM. The compound further gave a dissociation constant (Kd) in test [3] of over 50 µM. The same compound showed a Kd in test [4] of over 50 µM. This compound also had a dissociation constant (Kd) in test [5] of over 50 µM.
Regarding `O=C(Nc1ccccc1-c1cn2c(CN3CCNCC3)csc2n1)c1cnc2ccccc2n1` [SRT1720], on SIRT1 [1], the “Relative Velocity, X=AMC” value is reported as 1.0; the “Relative Velocity, X=Ala-NH2” value is listed as 0.9; the “Relative Velocity, X=NH2” value was 1.1; the “Relative Velocity, X=Phe-NH2” value is on record as 0.9. Moreover, in test [2], the Kd is over 500 µM. This compound had a Kd in test [3] of over 500 µM. In test [4], this compound displayed a Kd of over 500 µM. Also, in test [5], binding was put at a Kd of 150 µM and the “Kd for binding to Ac-Arg-His-Lys-Lys^Ac-X, X=TrpNH2” value is on record as “binds”.
As a reminder, the EC50 is the concentration giving half of the maximal effect. With `O=C(Nc1ccccc1-c1nc2cc(CCC3CCNCC3)cnc2s1)c1cccc(C2CCNC2)c1` (centres unmarked) [Compound 7], on SIRT1 [6] (25 min, percent maximum fold activation of SIRT1, read-out: % FOLD ACT.), the Emax is at least 200%. Moreover, the “EC1.5 uM” value on SIRT1 [6] (concentration that results in 150% activation of SIRT1) was “A (EC1.5≦1 μM)”. In addition, the “EC1.5 for activation of SIRT1” value at SIRT1 [7] (concentration for 1.5-fold activation) was 0.1 µM. Further, at SIRT1 [7] (fit to eq (1), read-out: EC50 (Kx) for activation of SIRT1-catalyzed deacetylation of TAMRA-peptide), the half-maximal effective concentration (EC50) was determined as 500 nM. Also, at TAMRA-peptide, the Kd came to 36 µM.
